Molecules are shown by their SMILES. Like-named read-outs stand apart in the source and are kept apart here.

The subject of assay [1] is mice with LPS/D-GalN-induced acute hepatic failure. The note with it: for Aspartate transferase (AST) / Alanine transferase (ALT): serum, 6 hours after modeling. On the procedure:
(§1) The mice of the blank group and the model group were given the equivalent dose of normal saline by gavage for three consecutive days before the establishment of the model. […] Upon the third day of gavage, the mice of the blank group were given the equivalent dose of normal saline by intraperitoneal injection, and the mice of the model group and the groups with low, medium and high doses were given the LPS and the D-GalN by intraperitoneal injection. After 6 hours of modeling, blood and liver tissues were taken. Whole blood was centrifuged (4000 rmp×10 min), and then the supernatant was taken. The liver tissue was washed with normal saline, one-fourth of the large liver lobe was stored in a formalin solution, and the rest of the liver was stored in a refrigerator of −80° C.
Plasma was taken, and determined with alanine transaminase (GPT) and aspartate transferase (GOT) kits. The experiment followed the instructions of the kits available from Nanjing Jiancheng Bioengineering Institute.
(§2) All experimental data were analyzed by a Graphpad Prism 7.0 software. Statistical analysis between the two groups was conducted by a t test. Variance analysis was conducted by Ordinary one-way ANOVA. A Multiple Comparison method was used for conducting pairwise comparison among multiple groups. When the P value was <0.05, it was considered that there was statistical difference among the data of each group.

Assay [2] has the same test system. The note with it: for Catalase (CAT) / Glutathione (GSH) / Malondialdehyde (MDA) / Superoxide dismutase (SOD): liver tissue homogenate. As for the experimental part: as §1
The liver tissue homogenate was detected with glutathione (GSH), superoxide dismutase (SOD), malondialdehyde (MDA) and catalase (CAT) kits. The experiment followed the instructions of kits available from Nanjing Jiancheng Bioengineering Institute.
as §2

For assay [3] the test system is unchanged. As for the experimental part:
as §1
The in vitro liver tissue was spread on a white paperboard, observed for the appearance of the liver tissue, and photographed.

Assay [4] has the same test system. On the procedure: as §1
The liver tissue was soaked in a 10% formalin solution, washed under running water, dehydrated with ethanol solutions of low to high concentrations, xylene solution, embedded with paraffin, sectioned, stained with H&E, and observed under a microscope for the pathological morphology of the liver tissue.
This is another data set of the same source.

The test system is the same in assay [5]. The note with it: treatment group administrated with the AFG. On the procedure: as §1
Assay [6] has as its system mice with acute hepatitis/hepatic failure caused by LPS/D-GalN. The note with it: through a TLR4 signaling pathway; International Immunopharmacology, 2018, 61:266-276; cited from earlier work.
[7] abbreviates: group with the high dose of the AFG, P<0.01.
Where [8] appears, read: AFG 25 mg/kg by gavage for 3 days before LPS/D-GalN.
[9] abbreviates: AFG 50 mg/kg by gavage for 3 days before LPS/D-GalN.
[10] abbreviates: AFG 100 mg/kg by gavage for 3 days before LPS/D-GalN.
Where [11] appears, read: groups with medium and high doses of the AFG, P<0.05.

In the case of `N=C(N)NCCC[C@H](NCC(=O)[C@@H](O)[C@H](O[C@H]1O[C@H](CO)[C@@H](O)[C@H](O)[C@H]1O)[C@H](O)CO)C(=O)O` [AFG, argininyl fructosy glucose], in assay [1] (AFG in the range from 50 mg/kg to 100 mg/kg, overall conclusion), the “improvement of acute hepatic failure caused by the combination of LPS and D-GalN” value is recorded as “can significantly improve the acute hepatic failure”. In assay [1] (setting [7]), the “level of ALT in the serum compared with the model group” value is “significantly decreased” and the “level of AST in the serum compared with the model group” value is reported as “significantly decreased”. In addition, the “Aspartate transferase (AST)” value in assay [1] (AFG 25 mg/kg by gavage for 3 days before LPS 40 μg/kg + D-GalN 700 mg/kg i.p.) was 260.52 ± 5.58. Also, in assay [1] (setting [8]), the “Alanine transferase (ALT)” value is 187.45 ± 3.48. For the same molecule, in assay [1] (setting [9]), the “Alanine transferase (ALT)” value was 116.13 ± 3.37 and the “Aspartate transferase (AST)” value is reported as 146.43 ± 0.93. In assay [1] (setting [10]), the “Alanine transferase (ALT)” value came to 71.90 ± 5.97 and the “Aspartate transferase (AST)” value stood at 80.48 ± 5.09. In assay [2] (setting [11]), the “level of CAT compared with the model group” value is listed as “increased significantly”, the “level of MDA compared with the model group” value is on record as “increased significantly” and the “level of SOD compared with the model group” value is “increased significantly”. Moreover, in assay [2] (setting [8]), the “Catalase (CAT)” value turned out to be 34.01 ± 2.75, the “Glutathione (GSH)” value was 51.91 ± 3.29, the “Malondialdehyde (MDA)” value is recorded as 133.37 ± 5.38 and the “Superoxide dismutase (SOD)” value was found to be 11.48 ± 1.77. In addition, in assay [2] (setting [9]), the “Catalase (CAT)” value was 51.66 ± 6.19, the “Glutathione (GSH)” value is reported as 67.94 ± 3.58, the “Malondialdehyde (MDA)” value was determined as 104.00 ± 3.13 and the “Superoxide dismutase (SOD)” value was found to be 20.98 ± 3.72. Moreover, in assay [2] (setting [10]), the “Catalase (CAT)” value came to 61.44 ± 8.96, the “Glutathione (GSH)” value is 136.00 ± 6.90, the “Malondialdehyde (MDA)” value was determined as 94.44 ± 6.87 and the “Superoxide dismutase (SOD)” value stood at 26.54 ± 2.93. For the same molecule, in assay [3] (group protected with the high dose), the “appearance of the liver, protection effect” value is listed as “the protection effect was obvious”. The “appearance of the liver” value in assay [3] (with the increase of the protection dose) was “gradually tended to be of a normal state”. The “H&E stained liver sections compared with the model group” value in assay [4] (group with the high dose of the AFG) was “the cells had relatively complete structures”. Besides, the “H&E stained liver sections compared with the model group” value in assay [4] (group with the medium dose of the AFG) is listed as “cellular necrosis was significantly improved”. The “number of apoptotic cells (TUNEL) compared with the model group” value in assay [5] is given as “significantly reduced”.

On to `CC(C)=CCC[C@](C)(O[C@@H]1O[C@H](CO)[C@@H](O)[C@H](O)[C@H]1O)[C@H]1CC[C@]2(C)[C@@H]1[C@H](O)C[C@@H]1[C@@]3(C)CC[C@H](O)C(C)(C)[C@@H]3[C@@H](O[C@@H]3O[C@H](CO)[C@@H](O)[C@H](O)[C@H]3O)C[C@]12C` [ginsenoside Rg1], for which, in assay [6], the “protective role on mice with acute hepatitis/hepatic failure caused by LPS/D-GalN” value was “plays a protective role”.

The values above are taken from patent US11160820B2 (Dalian Minzu University, priority 2019, dated 2021).
